One data set is described as follows: cells. To be noted: Homo sapiens, HCT-116, 24 h.
Data set [1] concerns CT26. Kind of data set: Antitumor activity against mouse CT26 cells implanted in BALB/c mouse assessed as tumor growth inhibition at 30 mg/kg, ip measured for 14 days. It counts as functional. To be noted: CT26, 336 h, time 14 day, read-out: TGI.
In data set [2] the test system is CT26. Kind of data set: Antitumor activity against mouse CT26 cells implanted in BALB/c mouse assessed as tumor growth inhibition at 30 mg/kg, ip measured for 7 days. To be noted: CT26, 168 h, read-out: TGI.
In data set [3] the test system is CT26. Kind of data set: Antitumor activity against mouse CT26 cells implanted in BALB/c mouse assessed as increase in CD103+ expression level at 30 mg/kg, ip measured for 7 days by flow cytometry analysis (reference value: 4.95%). It counts as functional. To be noted: time 7 day.
The nature of data set [4]: Antitumor activity against mouse PBMC cells implanted in BALB/c mouse assessed as increase in CD103 + XCR1 cDC1 expression at 30 mg/kg, ip measured for 7 days by qPCR analysis. Type of data set: functional. To be noted: time 7 day. (Real-time PCR tracks product formation cycle by cycle.)
The nature of data set [5]: in vitro. To be noted: mouse, liver microsomes. For orientation: Liver microsomes are vesicles of endoplasmic reticulum, rich in cytochrome P450 enzymes.
Description: Metabolic stability in mouse liver microsome assessed as half life preincubated with compound for 10 mins followed by NADPH addition and measured upto 60 mins by LC-MS/MS analysis
A short description of data set [6]: in vitro. To be noted: mouse, liver microsomes. This is another data set of the same source.
Description: Metabolic stability in mouse liver microsome assessed as clearance preincubated with compound for 10 mins followed by NADPH addition and measured upto 60 mins by LC-MS/MS analysis
Data set [7] deals with T1, beta-catenin-B-cell lymphoma 9 protein complex (Homo sapiens, UniProt P35222).
T1 sequence (P35222 whole entry): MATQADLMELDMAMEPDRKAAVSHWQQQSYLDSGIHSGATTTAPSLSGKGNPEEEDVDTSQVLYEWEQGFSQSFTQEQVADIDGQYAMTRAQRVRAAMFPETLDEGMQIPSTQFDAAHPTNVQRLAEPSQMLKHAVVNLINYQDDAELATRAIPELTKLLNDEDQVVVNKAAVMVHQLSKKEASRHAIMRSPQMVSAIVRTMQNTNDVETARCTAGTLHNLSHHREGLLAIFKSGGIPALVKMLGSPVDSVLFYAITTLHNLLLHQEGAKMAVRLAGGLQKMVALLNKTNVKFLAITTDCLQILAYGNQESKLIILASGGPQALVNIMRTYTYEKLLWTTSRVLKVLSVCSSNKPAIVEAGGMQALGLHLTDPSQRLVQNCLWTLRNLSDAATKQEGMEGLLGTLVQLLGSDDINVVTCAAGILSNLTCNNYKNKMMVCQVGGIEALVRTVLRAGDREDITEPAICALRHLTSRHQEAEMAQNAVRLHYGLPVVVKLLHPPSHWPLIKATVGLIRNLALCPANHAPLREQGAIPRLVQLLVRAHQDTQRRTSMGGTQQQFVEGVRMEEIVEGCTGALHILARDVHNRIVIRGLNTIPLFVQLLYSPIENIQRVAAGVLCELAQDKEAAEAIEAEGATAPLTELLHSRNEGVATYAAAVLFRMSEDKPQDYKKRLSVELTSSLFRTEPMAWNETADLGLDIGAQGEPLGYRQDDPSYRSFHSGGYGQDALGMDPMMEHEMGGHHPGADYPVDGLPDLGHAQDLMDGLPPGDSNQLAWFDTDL
T1 sequence (O00512 whole entry): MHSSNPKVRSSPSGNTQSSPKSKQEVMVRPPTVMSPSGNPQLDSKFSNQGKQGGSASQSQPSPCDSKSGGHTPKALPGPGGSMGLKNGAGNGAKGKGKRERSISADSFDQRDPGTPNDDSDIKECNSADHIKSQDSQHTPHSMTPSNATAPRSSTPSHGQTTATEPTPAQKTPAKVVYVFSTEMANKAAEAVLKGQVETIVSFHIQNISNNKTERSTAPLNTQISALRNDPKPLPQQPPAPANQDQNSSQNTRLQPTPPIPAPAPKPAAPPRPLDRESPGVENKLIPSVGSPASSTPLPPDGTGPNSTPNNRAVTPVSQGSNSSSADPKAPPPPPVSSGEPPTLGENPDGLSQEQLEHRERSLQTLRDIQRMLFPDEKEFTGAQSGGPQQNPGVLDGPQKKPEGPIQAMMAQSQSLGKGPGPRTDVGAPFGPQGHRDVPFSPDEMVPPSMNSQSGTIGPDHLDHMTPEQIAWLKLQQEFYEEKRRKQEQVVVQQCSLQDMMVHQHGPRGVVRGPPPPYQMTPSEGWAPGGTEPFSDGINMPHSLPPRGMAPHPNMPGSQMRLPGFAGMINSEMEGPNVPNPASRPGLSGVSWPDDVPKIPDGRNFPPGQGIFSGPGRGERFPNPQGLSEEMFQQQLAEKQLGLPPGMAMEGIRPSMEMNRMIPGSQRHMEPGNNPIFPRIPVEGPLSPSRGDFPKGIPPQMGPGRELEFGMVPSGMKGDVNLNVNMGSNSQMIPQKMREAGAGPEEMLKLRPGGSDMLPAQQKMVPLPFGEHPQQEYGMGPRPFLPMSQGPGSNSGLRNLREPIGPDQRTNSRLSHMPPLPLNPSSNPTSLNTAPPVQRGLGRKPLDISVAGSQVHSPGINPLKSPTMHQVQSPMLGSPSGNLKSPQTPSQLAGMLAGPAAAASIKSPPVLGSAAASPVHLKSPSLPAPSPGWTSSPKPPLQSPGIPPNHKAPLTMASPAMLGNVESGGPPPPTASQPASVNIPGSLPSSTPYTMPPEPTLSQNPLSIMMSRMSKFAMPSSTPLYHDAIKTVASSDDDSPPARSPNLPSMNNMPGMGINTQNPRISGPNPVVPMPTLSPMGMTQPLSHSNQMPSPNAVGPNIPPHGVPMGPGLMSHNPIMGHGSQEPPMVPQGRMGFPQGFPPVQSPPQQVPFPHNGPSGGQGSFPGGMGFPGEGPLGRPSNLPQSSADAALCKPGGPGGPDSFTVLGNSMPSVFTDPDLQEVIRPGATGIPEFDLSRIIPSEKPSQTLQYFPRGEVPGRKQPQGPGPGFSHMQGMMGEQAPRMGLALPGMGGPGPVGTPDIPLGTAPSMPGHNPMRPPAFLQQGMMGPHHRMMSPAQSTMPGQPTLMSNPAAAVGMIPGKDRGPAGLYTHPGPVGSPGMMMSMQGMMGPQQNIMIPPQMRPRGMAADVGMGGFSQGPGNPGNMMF
Kind of data set: Inhibition of full length his-tagged human beta-catenin (1 to 781 residues) expressed in Escherichia coli DE3/N-terminal FAM-tagged human BCL9 (350 to 375 residues) protein-protein interaction incubated for 2 hrs by fluorescence polarization assay. (Fluorescence polarisation rises when a labelled molecule tumbles more slowly, as on binding a larger partner.)

Another data set deals with T2, Catenin beta-1 (Homo sapiens, UniProt P35222).
T2 sequence (P35222 whole entry): T1 sequence (P35222 whole entry)
As to the kind of experiment: Binding affinity to full length his-tagged human beta-catenin (1 to 781 residues) expressed in Escherichia coli DE3 assessed as dissociation constant by SPR analysis.

Data set [8] in a line: Tmax in ICR mouse at 1 mg/kg, iv measured upto 24 hrs by HPLC-MS/MS analysis. Type of data set: ADME, organism-based. To be noted: in vivo.
The nature of data set [9]: Half life in ICR mouse at 1 mg/kg, iv measured upto 24 hrs by HPLC-MS/MS analysis. To be noted: in vivo. Type of data set: ADME, organism-based.
Data set [10] is described as follows: AUC (0 to t) in ICR mouse at 1 mg/kg, iv measured upto 24 hrs by HPLC-MS/MS analysis. It counts as ADME, organism-based. To be noted: in vivo.
Data set [11] in a line: Cmax in ICR mouse at 1 mg/kg, iv measured upto 24 hrs by HPLC-MS/MS analysis. Type of data set: ADME, organism-based. To be noted: in vivo.
Data set [12] in a line: Clearance in ICR mouse at 1 mg/kg, iv measured upto 24 hrs by HPLC-MS/MS analysis. It counts as ADME, organism-based. To be noted: in vivo.
A short description of data set [13]: Toxicity in BALB/c mouse implanted with mouse CT26 cells assessed as body weight loss at 30 mg/kg, ip measured for 14 days. It counts as organism-based. To be noted: in vivo, 336 h, time 14 day.
Data set [14] deals with T1, beta-catenin-B-cell lymphoma 9 protein complex. As to the kind of experiment: Inhibition of beta-catenin (unknown origin)/BCL9 (unknown origin) protein-protein interaction. Type of data set: protein-complex assay.

The structures appear in SMILES notation.

In general, IC50 refers to the midpoint of a concentration-inhibition curve. High values mean weaker potency, low ones greater potency. The half-life is how long it takes for the measured level to halve. A high value points to slow loss. Usually microsomal CLint stands for the rate of metabolic loss divided by the concentration. Low readings indicate greater metabolic stability, high ones faster metabolism. One may read the Kd as the free concentration of one partner at which half of the binding sites on the other are occupied at equilibrium, for simple one-to-one binding. By Tmax is commonly meant the time from dosing to the highest level. As usually defined, the AUC(0-t) is exposure summed from dosing to a finite time, without extrapolation to infinity. Low values mean less exposure, high ones more exposure. Broadly, the Cmax is the peak of the concentration-time curve. For orientation: clearance means the rate of elimination divided by the concentration. A low value points to a low capacity for elimination. By Ki is commonly meant the dissociation constant of the complex between target and ligand, obtained from inhibition or displacement. High values mean a looser hold on the target, low ones a stronger hold on the target.

Description for cells: Inhibition of Wnt/beta-catenin signaling pathway in human HCT-116 cells assessed as reduction in Axin2 expression incubated for 24 hrs by qPCR analysis

Regarding `O=C1[C@H](Cc2ccc(O)cc2)N2C(=O)CCN(C(=O)NCc3ccccc3)[C@H]2CN1Cc1cccc2ccccc12`, in “cells”, it took 3.34 µM to reach half-maximal inhibition (IC50).
For the molecule `CC(C)(Oc1cccc(N2CCC[C@@H](C(=O)N(Cc3ccc(-c4cn[nH]c4)cc3)C3CC3)C2)c1)C(=O)N1CCNCC1`, the inhibition in vivo at 30 mg/kg in the data set with CT26 [1] was found to be 42.4%; with CT26 [2], 44.1%. Moreover, the Activity in the data set with CT26 [3] is 14.9%; in [4], 5.17%. Further, the IC50 in the data set “cells” was 3.34 µM. In “in vitro [5]”, the half-life at 1 h was found to be 2.37 min. In “in vitro [6]”, this molecule came in with a microsomal CLint at 1 h of 888 µL/min/mg.
With `CC(C)(Oc1cccc(N2CCC[C@H](NC(=O)N(Cc3ccc(-c4cn[nH]c4)cc3)C3CC3)C2)c1)C(=O)N1CCNCC1`, the IC50 in “cells” was found to be 4.35 µM.
With `CC(C)(Oc1cccc(N2CCC[C@@H](NC(=O)N(Cc3ccc(-c4cn[nH]c4)cc3)C3CC3)C2)c1)C(=O)NCC(=O)N1CCCC1CCN` (stereo partly specified), the half-maximal inhibitory concentration (IC50) in data set [7] amounted to 3.92 µM; in “cells”, 4.45 µM. The Kd at Catenin beta-1 turned out to be 0.082 µM.
As for `CC(C)(Oc1cccc(N2CCC[C@@H](NC(=O)N(Cc3ccc(-c4cn[nH]c4)cc3)C3CC3)C2)c1)C(=O)NCCN`, the 50% inhibitory concentration (IC50) is > 20 µM in data set [7] and 2.54 µM in “cells”. Besides, at Catenin beta-1, the dissociation constant (Kd) was 0.25 µM.
`CC(C)(Oc1cccc(N2CCC[C@H](NC(=O)N(Cc3ccc(-c4cn[nH]c4)cc3)C3CC3)C2)c1)C(=O)N1CCOCC1` returned an IC50 in “cells” of 8.24 µM.
Turning to `CC(C)(Oc1cccc(N2CCC[C@@H](NC(=O)N(Cc3ccc(-c4cn[nH]c4)cc3)C3CC3)C2)c1)C(=O)NCCCN`, the Tmax in data set [8] came to 4.8 min. In [9], this molecule had a half-life of 40.2 min. In [10], this molecule gave an AUC(0-t) at 24 h of 430 ng·h/mL. Besides, in data set [11], the Cmax came out at 910 ng/mL. This molecule displayed a clearance in data set [12] of 40 mL/min/kg. The inhibition in vivo at 30 mg/kg in the data set on CT26 [1] came out at 56.4%. Further, the Activity result in data set [13] was “Non-Toxic”. The molecule also came in with an IC50 in the data set “cells” of 2.88 µM. This molecule also displayed a half-life at 1 h in “in vitro [5]” of 31.5 min. The microsomal CLint at 1 h in the data set “in vitro [6]” worked out at 67 µL/min/mg.
In the case of `CC(C)(Oc1cccc(N2CCC[C@H](NC(=O)N(Cc3ccc(-c4cn[nH]c4)cc3)C3CC3)C2)c1)C(=O)NCCN`, the half-maximal inhibitory concentration (IC50) is 1.83 µM in [7] and 7.5 µM in “cells”. The Kd at Catenin beta-1 came to 0.25 µM.
With `CC(C)(Oc1cccc(N2CCC[C@H](NC(=O)N(Cc3ccc(-c4cn[nH]c4)cc3)C3CC3)C2)c1)C(=O)NCC(=O)N1CCCC1CCN` (stereo partly specified), the IC50 in data set [7] worked out at 2.06 µM; in the data set “cells”, 5.3 µM. Moreover, on Catenin beta-1, the Kd was found to be 0.64 µM.
In turn, `CC(C)(Oc1cccc(N2CCC[C@@H](NC(=O)N(Cc3ccc(-c4cn[nH]c4)cc3)C3CC3)C2)c1)C(=O)N1CCNCC1` displayed an IC50 in “cells” of 4.67 µM. This counts as single-digit micromolar.
`CC(C)(Oc1cccc(N2CCC[C@H](NC(=O)N(Cc3ccc(-c4cn[nH]c4)cc3)C3CC3)C2)c1)C(=O)NCCCN`: the IC50 in “cells” is > 10 µM.
The same measure, in the same setting: under `CC(C)(Oc1cccc(N2CCC[C@@H](NC(=O)N(Cc3ccc(-c4cn[nH]c4)cc3)C3CC3)C2)c1)C(=O)N1CCOCC1` stands 5.41 µM.
Take `CCCC(=O)Oc1ccc([N+](=O)[O-])cc1`: the affinity in data set [14] corresponds to a Ki of 2.1 µM. This counts as single-digit micromolar.

These data come from ChEMBL document CHEMBL5550183, “Discovery of Novel 1-Phenylpiperidine Urea-Containing Derivatives Inhibiting β-Catenin/BCL9 Interaction and Exerting Antitumor Efficacy through the Activation of Antigen Presentation of cDC1 Cells” (J Med Chem, 2024).
